# Patent publication US20100041597A1, “PEPTIDES TARGETED TO PROTEIN KINASE C ISOFORMS AND USES THEREOF” (priority 2005, published 2010)
# Legend:
# [1] = biological target: T1, PKC-ζ (Homo sapiens, UniProt Q05513); assay: ELISA-based competitive binding assay with purified PKC isoform; set-up: key to Affinity for PKC isoform ζ: —: no detectable affinity; Low to very low affinity at 10X or 20X or both PRE concentrations in at least one cell line in the cell extract assay; Low affinity in purified isoform assay.; Moderate affinity at 10X or 20X or both PRE concentrations in at least one cell line in the cell extract assay.; High affinity at 10X or 20X or both PRE concentrations in at least one cell line in the cell extract assay; High affinity in purified isoform assay; conditions: for inhibition at 50 µM / inhibition at 100 µM / inhibition at 200 µM / calculated binding capacity (100-% n) after subtraction of the DMSO apparent binding capacity: purified PKC-ζ; for inhibition at 50 µM / inhibition at 100 µM / inhibition at 200 µM: read-out: calculated binding capacity (100-% n) after subtraction of the DMSO apparent binding capacity; for Affinity for PKC isoform ζ: Purified isoform, Table 20
# T1 sequence (Q05513 1-592): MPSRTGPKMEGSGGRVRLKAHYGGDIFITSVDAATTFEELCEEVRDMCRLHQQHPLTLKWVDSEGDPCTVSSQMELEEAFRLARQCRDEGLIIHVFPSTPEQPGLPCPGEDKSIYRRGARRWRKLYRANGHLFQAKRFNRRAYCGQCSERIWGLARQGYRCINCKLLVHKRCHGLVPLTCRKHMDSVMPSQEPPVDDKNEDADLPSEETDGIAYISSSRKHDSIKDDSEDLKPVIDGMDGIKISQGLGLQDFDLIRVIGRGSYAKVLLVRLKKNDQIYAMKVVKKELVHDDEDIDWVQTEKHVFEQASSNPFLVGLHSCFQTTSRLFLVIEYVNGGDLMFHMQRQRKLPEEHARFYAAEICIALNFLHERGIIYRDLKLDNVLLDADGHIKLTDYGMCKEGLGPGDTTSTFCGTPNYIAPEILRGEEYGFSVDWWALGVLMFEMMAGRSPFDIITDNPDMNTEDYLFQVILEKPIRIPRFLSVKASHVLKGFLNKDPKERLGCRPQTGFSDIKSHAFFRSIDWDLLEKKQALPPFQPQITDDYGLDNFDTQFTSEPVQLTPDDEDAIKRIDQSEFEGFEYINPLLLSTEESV
# Protocol: (§1) Peptides PRE 1, 2, 3, 4, 5, 6, 7, 8, 9, 10, 11, 12 and 13 (see Table 3) were tested for their ability to interfere with binding of PKC isoform-specific antibodies to their target PKC isoforms using a competitive binding assay and purified PKC isoforms.
# (§2) Procedure: Competitive binding was assessed using a 96 well plate ELISA-based assay as described below.
# (§3) Greiner 96 well ELISA plates were coated with the appropriate PKC isoform diluted in PBSN (PBS with Calcium/Magnesium+0.05% Sodium azide w/w). 50 μL/well at 250 ng/mL was used. Control wells contained PBSN only. Plates were incubated overnight at 4° C.
# (§4) The plates were washed 3 times with 200 μL of dH2O per well, then 100 μL of blocking solution was added per well and the plate incubated for 1 h at 37° C. The washing steps with dH2O were repeated and 50 μL of the appropriate PRE solution (PRE stock solution [20 mM in DMSO] diluted in PBSN) was added and the plate incubated for 1 h at room temperature.
# (§5) After incubation, 5 μL of 1.1:400 anti-PKC (isoform specific antibody) was added per well (to provide a final concentration of 1:4000). For PKC-epsilon, 1.1:800 dilution was used and for PKC-zeta a 1.1:100 dilution was used due to high and low binding affinity, respectively. The plates were then incubated 1 h at room temperature, followed by washing with dH2O as described above.
# (§6) 50 μL of 1:1000 dilution of Alkaline Phosphatase (AP) conjugated antibody (anti-rabbit for all except zeta, which was anti-goat) was then added and the plate incubated for 1 h at room temperature. Washing with dH2O was then repeated. Finally, 100 μL of pNPP solution in pNPP buffer (2 mM MgCl2, 100 mM Sodium bicarbonate in water, pH 9.8) was added to all wells and incubated for 8 minutes for α, βI, βII ε, and ζ, or for 15-20 mins for […] (until sufficient coloration is observed). The reaction was stopped by addition of Stop solution (2N NaOH) and the absorbance at 405 nm was read on a Galaxy Plate reader.
# (§7) Controls were PKC without PRE; blank controls, and controls containing the final concentrations of DMSO used for solubilizing the PREs. The non-specific binding capacity related to DMSO was also measured.
# (§8) The antibodies used were as follows: anti-PKC α (Cat. No. SC-208); anti-PKC βI (Cat. No. SC-209); anti-PKC βII (Cat. No. SC-210); anti-PKC δ (Cat. No. SC-213); anti-PKC ε (Cat. No. SC-214); anti-PKC ζ (Cat. No. SC-216-G) (all from Santa Cruz Biotechnology, Inc.). The AP-conjugated antibodies were obtained from Jackson Immuno Research Laboratories (West Grove, Pa.).
# (§9) Calculations: The OD values measured at 405 nm represent the free PKC coated per well.
# (§10) OD405 PKC alone−Blank OD405 of each sample=OD405 coated isoform
# (§11) (OD405 of sample X/OD405 coated isoform)×100=% n that represents the percentage of X binding compared to control.
# (§12) 100-% n measures the relative binding capacity of X towards the tested isoform.
# (§13) The apparent binding capacity of the DMSO samples was then subtracted from X binding capacity.
# (§14) All measurements were made in triplicate and the values in the table represent the averaged calculated binding capacity values after subtraction of the DMSO apparent binding capacity (averaged from 12 values, respectively 10.80, 11.20 and 16.40 corresponding to the concentrations of DMSO used to dilute the […] at 200, 100 and 50 μM respectively). The results allow for quantitative comparison of the binding capacity of each PRE towards an individual isoform within each table, but not among isoforms due to differences in sensitivity of the specific antibodies toward the secondary antibody. This applies particularly to PKC-delta. As noted above, the colour development duration was increased 2-3 times and, as a result, the OD405 measurements may be overestimated for this isoform.
# [2] = biological target: PKC-α (Homo sapiens, UniProt P17252); assay: as above; set-up: key to Affinity for PKC isoform α: —: no detectable affinity; Low to very low affinity at 10X or 20X or both PRE concentrations in at least one cell line in the cell extract assay; Low affinity in purified isoform assay.; Moderate affinity at 10X or 20X or both PRE concentrations in at least one cell line in the cell extract assay.; High affinity at 10X or 20X or both PRE concentrations in at least one cell line in the cell extract assay; High affinity in purified isoform assay; conditions: for inhibition at 50 µM / inhibition at 100 µM / inhibition at 200 µM / calculated binding capacity (100-% n) after subtraction of the DMSO apparent binding capacity: purified PKC-α; for inhibition at 50 µM / inhibition at 100 µM / inhibition at 200 µM: read-out: calculated binding capacity (100-% n) after subtraction of the DMSO apparent binding capacity; for Affinity for PKC isoform α: Purified isoform, Table 20; for targeting of PKC-α: purified isoform, Tables 14-19; for isoform specificity: purified isoforms α, βI, βII, δ, ε, ζ compared
# Protocol: as §1, §2, §3, §4, §5, §6, §7, §8, §9, §10, §11, §12, §13, §14
substance,measurement,setting,value
Ac-AKGIQEVKGGDAQNLIGISI-NH2 [PRE 3],inhibition at 50 µM,[1]; PRE 50 μM,14%
same,inhibition at 100 µM,[1]; PRE 100 μM,23.9%
same,inhibition at 200 µM,[1]; PRE 200 μM,29.1%
same,Affinity for PKC isoform ζ,[1],H
same,targeting of PKC-ζ,"[1]; purified isoform, Tables 14-19",targeted by PRE 3 only
same,inhibition at 50 µM,[2]; PRE 50 μM,17.5%
same,inhibition at 100 µM,[2]; PRE 100 μM,26.5%
same,inhibition at 200 µM,[2]; PRE 200 μM,22.6%
same,Affinity for PKC isoform α,[2],H
same,targeting of PKC-α,[2],targeted most strongly
same,isoform specificity,[2],"“universal” PKC targeting peptide, with the exception of the PKC-βII isoform"
Ac-AKGIQEVKGGKDAQNLIGISI-NH2 [PRE 5],inhibition at 50 µM,[1]; PRE 50 μM,0%
same,inhibition at 100 µM,[1]; PRE 100 μM,0%
same,inhibition at 200 µM,[1]; PRE 200 μM,0%
same,Affinity for PKC isoform ζ,[1],—
same,inhibition at 50 µM,[2]; PRE 50 μM,0%
same,inhibition at 100 µM,[2]; PRE 100 μM,0%
same,inhibition at 200 µM,[2]; PRE 200 μM,0%
same,Affinity for PKC isoform α,[2],—
Ac-ISIGILNQADK-NH2 [PRE 10],Affinity for PKC isoform ζ,[1],—
same,Affinity for PKC isoform α,[2],—
Ac-ISIGILQNADK-NH2 [PRE 7],Affinity for PKC isoform ζ,[1],—
same,Affinity for PKC isoform α,[2],L
Ac-KDANQLIGISI-NH2 [PRE 6],Affinity for PKC isoform ζ,[1],—
same,Affinity for PKC isoform α,[2],—
Ac-KDAQNLI-NH2 [PRE 12],calculated binding capacity (100-% n) after subtraction of the DMSO apparent binding capacity,[1]; PRE 50 μM,4.20
same,calculated binding capacity (100-% n) after subtraction of the DMSO apparent binding capacity,[1]; PRE 100 μM,8.77
same,calculated binding capacity (100-% n) after subtraction of the DMSO apparent binding capacity,[1]; PRE 200 μM,0.33
same,Affinity for PKC isoform ζ,[1],—
same,Affinity for PKC isoform α,[2],—
"Ac-KDAQNLIGISI-NH2 [PRE 4, Ac-KDAQNLIGISI-NH2]",inhibition at 50 µM,[1]; PRE 50 μM,0%
same,inhibition at 100 µM,[1]; PRE 100 μM,0%
same,inhibition at 200 µM,[1]; PRE 200 μM,5.85%
same,Affinity for PKC isoform ζ,[1],—
same,inhibition at 50 µM,[2]; PRE 50 μM,6.46%
same,inhibition at 100 µM,[2]; PRE 100 μM,21.9%
same,inhibition at 200 µM,[2]; PRE 200 μM,22.8%
same,Affinity for PKC isoform α,[2],H
same,targeting of PKC-α,[2],targeted most strongly
same,isoform specificity,[2],specificity for PKC-A
Ac-RDAQNLI-NH2 [PRE 13],Affinity for PKC isoform ζ,[1],—
same,Affinity for PKC isoform α,[2],—
Ac-RDAQNLIGISI-NH2 [PRE 11],Affinity for PKC isoform ζ,[1],—
same,Affinity for PKC isoform α,[2],L
Ac-isigilgnadk-NH2 [PRE 9],Affinity for PKC isoform ζ,[1],—
same,calculated binding capacity (100-% n) after subtraction of the DMSO apparent binding capacity,[2]; PRE 100 μM,5.35
same,Affinity for PKC isoform α,[2],—
ILEDKGGDAQNLIGISI [PRE 8],Affinity for PKC isoform ζ,[1],—
same,Affinity for PKC isoform α,[2],—
RRKKGGKDFVVKR [PRE 1],calculated binding capacity (100-% n) after subtraction of the DMSO apparent binding capacity,[1]; PRE 50 μM,4.11
same,Affinity for PKC isoform ζ,[1],—
same,calculated binding capacity (100-% n) after subtraction of the DMSO apparent binding capacity,[2]; PRE 50 μM,0.69
same,calculated binding capacity (100-% n) after subtraction of the DMSO apparent binding capacity,[2]; PRE 200 μM,2.10
same,Affinity for PKC isoform α,[2],—
